Experimental findings from patent US9499550B2 (BRISTOL-MYERS SQUIBB COMPANY, priority 2012, dated 2016) are described below.

The structures appear in SMILES notation.

For orientation: EC50 means the concentration giving half of the maximal effect.

For test [1], the system named is HCV genotype 1a (H77 strain) replicon in HUH-7 cells. The test can be described thus: HCV replicon luciferase reporter assay, genotype 1a. It is filed as cell-based. The note with it: Hepatitis C virus, Huh-7, 72 h, HCV genotype 1a replicon luciferase assay, 3 days incubation, range class, read-out: LE_1a (EC50, range). In a few lines:
(§1)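 Replicon inhibition for both genotypes was measured as Renilla luciferase signal (EnduRen, 7.5 μM final, 2 h) after 3-day, 37° C exposure of replicon-bearing HUH-7 cells in 4% FCS DMEM, 0.5% DMSO. The 1b construct carries S1179I; the 1a H77 construct carries P1496L and S2204I. Twenty-point, 3-fold dilutions were fitted four-parametrically for EC50, and CC50 was taken from multiplexed Cell Titer-Blue.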
(In general: Replicon systems follow genome replication, usually without infectious particles.)

Test [2] deals with HCV genotype 1b (Con1) replicon in HUH-7 cells. The test can be described thus: HCV replicon luciferase reporter assay, genotype 1b. Type of test: cell-based. To be noted: Hepatitis C virus, Huh-7, 72 h, HCV genotype 1b replicon luciferase assay, 3 days incubation, range class, read-out: LE_1b (EC50, range). In a few lines:
as §1

As for `COc1ccc2c(O[C@@H]3C[C@H]4C(=O)N[C@]5(C(=O)NS(=O)(=O)C6CC6)C[C@H]5/C=C\CC[C@@H](C)C[C@@H](C)[C@H](NC(=O)OC(C)(C)C(F)(F)F)C(=O)N4C3)nc(N3CCOCC3)cc2c1` [Compound 3099, 1,1,1-trifluoro-2-methylpropan-2-yl((2R,6S,7R,9R,13aS,14aR,16aS,Z)-14a-((cyclopropylsulfonyl)carbamoyl)-2-((6-methoxy-3-morpholinoisoquinolin-1-yl)oxy)-7,9-dimethyl-5,16-dioxo-1,2,3,5,6,7,8,9,10,11,13a,14,14a,15,16,16a-hexadecahydrocyclopropa[e]pyrrolo[1,2-a][1,4]diazacyclopentadecin-6-yl)carbamate], the EC50 in test [1] and in test [2] was below 5.46 nM in each case.

As to `[2H]C([2H])([2H])C(OC(=O)N[C@@H]1C(=O)N2C[C@H](Oc3nc(N4CCOCC4)cc4cc(OC)ccc34)C[C@H]2C(=O)N[C@]2(C(=O)NS(=O)(=O)C3CC3)C[C@H]2/C=C\CC[C@H](C)C[C@H]1C)(C([2H])([2H])[2H])C(F)(F)F` [Compound 3100, 1,1,1,3,3,3-hexadeutero-2-(trifluoromethyl)propan-2-yl((2R,6S,7R,9S,13aS,14aR,16aS,Z)-14a-((cyclopropylsulfonyl)carbamoyl)-2-((6-methoxy-3-morpholinoisoquinolin-1-yl)oxy)-7,9-dimethyl-5,16-dioxo-1,2,3,5,6,7,8,9,10,11,13a,14,14a,15,16,16a-hexadecahydrocyclopropa[e]pyrrolo[1,2-a][1,4]diazacyclopentadecin-6-yl)carbamate], the concentration for a half-maximal effect (EC50) in test [1] and in test [2] was below 5.46 nM in each case.

`[2H]C([2H])([2H])C(OC(=O)N[C@@H]1C(=O)N2C[C@H](Oc3nc(N4CCOCC4)cc4cc(OC)ccc34)C[C@H]2C(=O)N[C@]2(C(=O)NS(=O)(=O)C3CC3)C[C@H]2/C=C\CC[C@@H](C)C[C@H]1C)(C([2H])([2H])[2H])C(F)(F)F` [Compound 3101, 1,1,1,3,3,3-hexadeutero-2-(trifluoromethyl)propan-2-yl((2R,6S,7R,9R,13aS,14aR,16aS,Z)-14a-((cyclopropylsulfonyl)carbamoyl)-2-((6-methoxy-3-morpholinoisoquinolin-1-yl)oxy)-7,9-dimethyl-5,16-dioxo-1,2,3,5,6,7,8,9,10,11,13a,14,14a,15,16,16a-hexadecahydrocyclopropa[e]pyrrolo[1,2-a][1,4]diazacyclopentadecin-6-yl)carbamate]: the EC50 in test [1] and in test [2] was below 5.46 nM each time.

Turning to `COc1ccc2c(O[C@@H]3C[C@H]4C(=O)N[C@]5(C(=O)NS(=O)(=O)C6CC6)C[C@H]5/C=C\CC[C@H](C)C[C@@H](C)[C@H](NC(=O)O[C@H](C)C(F)(F)F)C(=O)N4C3)nc(N3CCOCC3)cc2c1` [Compound 3102, (R)-1,1,1-trifluoropropan-2-yl ((2R,6S,7R,9S,13aS,14aR,16aS,Z)-14a-((cyclopropylsulfonyl)carbamoyl)-2-((6-methoxy-3-morpholinoisoquinolin-1-yl)oxy)-7,9-dimethyl-5,16-dioxo-1,2,3,5,6,7,8,9,10,11,13a,14,14a,15,16,16a-hexadecahydrocyclopropa[e]pyrrolo[1,2-a][1,4]diazacyclopentadecin-6-yl)carbamate], the EC50 in test [1] is 4.82 to 103 nM; in test [2], below 5.46 nM.

On to `COc1ccc2c(O[C@@H]3C[C@H]4C(=O)N[C@]5(C(=O)NS(=O)(=O)C6CC6)C[C@H]5/C=C\CC[C@@H](C)C[C@@H](C)[C@H](NC(=O)O[C@H](C)C(F)(F)F)C(=O)N4C3)nc(N3CCOCC3)cc2c1` [Compound 3103, (R)-1,1,1-trifluoropropan-2-yl ((2R,6S,7R,9R,13aS,14aR,16aS,Z)-14a-((cyclopropylsulfonyl)carbamoyl)-2-((6-methoxy-3-morpholinoisoquinolin-1-yl)oxy)-7,9-dimethyl-5,16-dioxo-1,2,3,5,6,7,8,9,10,11,13a,14,14a,15,16,16a-hexadecahydrocyclopropa[e]pyrrolo[1,2-a][1,4]diazacyclopentadecin-6-yl)carbamate], for which the concentration for a half-maximal effect (EC50) in test [1] and in test [2] was below 5.46 nM throughout.

Consider `COc1ccc2c(O[C@@H]3C[C@H]4C(=O)N[C@]5(C(=O)NS(=O)(=O)C6CC6)C[C@H]5/C=C\CC[C@H](C)C[C@@H](C)[C@H](NC(=O)O[C@@H]5C[C@@H]6C[C@@H]6C5)C(=O)N4C3)nc(N3CCOCC3)cc2c1` [Compound 3104, (1R,3r,5S)-bicyclo[3.1.0]hexan-3-yl((2R,6S,7R,9S,13aS,14aR,16aS,Z)-14a-((cyclopropylsulfonyl)carbamoyl)-2-((6-methoxy-3-morpholinoisoquinolin-1-yl)oxy)-7,9-dimethyl-5,16-dioxo-1,2,3,5,6,7,8,9,10,11,13a,14,14a,15,16,16a-hexadecahydrocyclopropa[e]pyrrolo[1,2-a][1,4]diazacyclopentadecin-6-yl)carbamate], for which the EC50 in test [1] and in test [2] was 4.82 to 103 nM throughout.

For the compound `COc1ccc2c(O[C@@H]3C[C@H]4C(=O)N[C@]5(C(=O)NS(=O)(=O)C6CC6)C[C@H]5/C=C\CC[C@@H](C)C[C@@H](C)[C@H](NC(=O)O[C@@H]5C[C@@H]6C[C@@H]6C5)C(=O)N4C3)nc(N3CCOCC3)cc2c1` [Compound 3105, (1R,3r,5S)-bicyclo[3.1.0]hexan-3-yl((2R,6S,7R,9R,13aS,14aR,16aS,Z)-14a-((cyclopropylsulfonyl)carbamoyl)-2-((6-methoxy-3-morpholinoisoquinolin-1-yl)oxy)-7,9-dimethyl-5,16-dioxo-1,2,3,5,6,7,8,9,10,11,13a,14,14a,15,16,16a-hexadecahydrocyclopropa[e]pyrrolo[1,2-a][1,4]diazacyclopentadecin-6-yl)carbamate], the EC50 in test [1] and in test [2] was below 5.46 nM throughout.

Consider `COc1ccc2c(O[C@@H]3C[C@H]4C(=O)N[C@]5(C(=O)NS(=O)(=O)C6CC6)C[C@H]5/C=C\CC[C@H](C)C[C@@H](C)[C@H](NC(=O)OC(C)(C)C)C(=O)N4C3)nc(N3CCOCC3)cc2c1` [Compound 3106, tert-butyl ((2R,6S,7R,9S,13aS,14aR,16aS,Z)-14a-((cyclopropylsulfonyl)carbamoyl)-2-((6-methoxy-3-morpholinoisoquinolin-1-yl)oxy)-7,9-dimethyl-5,16-dioxo-1,2,3,5,6,7,8,9,10,11,13a,14,14a,15,16,16a-hexadecahydrocyclopropa[e]pyrrolo[1,2-a][1,4]diazacyclopentadecin-6-yl)carbamate], for which the EC50 in test [1] and in test [2] was 4.82 to 103 nM each time.

For `COc1ccc2c(O[C@@H]3C[C@H]4C(=O)N[C@]5(C(=O)NS(=O)(=O)C6CC6)C[C@H]5/C=C\CC[C@@H](C)C[C@@H](C)[C@H](NC(=O)OC(C)(C)C)C(=O)N4C3)nc(N3CCOCC3)cc2c1` [Compound 3107, tert-butyl ((2R,6S,7R,9R,13aS,14aR,16aS,Z)-14a-((cyclopropylsulfonyl)carbamoyl)-2-((6-methoxy-3-morpholinoisoquinolin-1-yl)oxy)-7,9-dimethyl-5,16-dioxo-1,2,3,5,6,7,8,9,10,11,13a,14,14a,15,16,16a-hexadecahydrocyclopropa[e]pyrrolo[1,2-a][1,4]diazacyclopentadecin-6-yl)carbamate], the EC50 in test [1] and in test [2] was below 5.46 nM in each case.

With `COc1ccc2c(O[C@@H]3C[C@H]4C(=O)N[C@]5(C(=O)NS(=O)(=O)C6(C)CC6)C[C@H]5/C=C\CC[C@H](C)C[C@@H](C)[C@H](NC(=O)OC(C)(C)C)C(=O)N4C3)nc(N(C)C)cc2c1` [Compound 3108, tert-butyl ((2R,6S,7R,9S,13aS,14aR,16aS,Z)-2-((3-(dimethylamino)-6-methoxyisoquinolin-1-yl)oxy)-7,9-dimethyl-14a-(((1-methylcyclopropyl)sulfonyl)carbamoyl)-5,16-dioxo-1,2,3,5,6,7,8,9,10,11,13a,14,14a,15,16,16a-hexadecahydrocyclopropa[e]pyrrolo[1,2-a][1,4]diazacyclopentadecin-6-yl)carbamate], the concentration giving a half-maximal response (EC50) in test [1] and in test [2] was 4.82 to 103 nM throughout.

With `COc1ccc2c(O[C@@H]3C[C@H]4C(=O)N[C@]5(C(=O)NS(=O)(=O)C6(C)CC6)C[C@H]5/C=C\CC[C@@H](C)C[C@@H](C)[C@H](NC(=O)OC(C)(C)C)C(=O)N4C3)nc(N(C)C)cc2c1` [Compound 3109, tert-butyl ((2R,6S,7R,9R,13aS,14aR,16aS,Z)-2-((3-(dimethylamino)-6-methoxyisoquinolin-1-yl)oxy)-7,9-dimethyl-14a-(((1-methylcyclopropyl)sulfonyl)carbamoyl)-5,16-dioxo-1,2,3,5,6,7,8,9,10,11,13a,14,14a,15,16,16a-hexadecahydrocyclopropa[e]pyrrolo[1,2-a][1,4]diazacyclopentadecin-6-yl)carbamate], the EC50 in test [1] and in test [2] was 4.82 to 103 nM each time.

In the case of `COc1ccc2c(O[C@@H]3C[C@H]4C(=O)N[C@]5(C(=O)NS(=O)(=O)C6(C)CC6)C[C@H]5/C=C\CC[C@H](C)C[C@@H](C)[C@H](NC(=O)O[C@@H]5C[C@@H]6C[C@@H]6C5)C(=O)N4C3)nc(N(C)C)cc2c1` [Compound 3110, (1R,3r,5S)-bicyclo[3.1.0]hexan-3-yl((2R,6S,7R,9S,13aS,14aR,16aS,Z)-2-((3-(dimethylamino)-6-methoxyisoquinolin-1-yl)oxy)-7,9-dimethyl-14a-(((1-methylcyclopropyl)sulfonyl)carbamoyl)-5,16-dioxo-1,2,3,5,6,7,8,9,10,11,13a,14,14a,15,16,16a-hexadecahydrocyclopropa[e]pyrrolo[1,2-a][1,4]diazacyclopentadecin-6-yl)carbamate], the EC50 in test [1] and in test [2] was 4.82 to 103 nM throughout.
